The results in this text go back to patent US20050175696A1, “Drug granule coatings that impart smear resistance during mechanical compression” (priority 2003, published 2005).

This data set can be described thus: Equilibrium solubility of topiramate in de-ionized water and in aqueous surfactant solutions. It is filed as physicochemical. As for the experimental part:
The resulting solution saturated with the pharmaceutical agent is then filtered, typically under pressure through a 0.8-micron Millipore filter, and the concentration of the pharmaceutical agent in the solution is measured by any appropriate analytical method including gravimetric, ultraviolet spectrophometry, chromatography, and the like. The solubility of the pharmaceutical agent is measured at equilibrium.
A drug composition of the present invention was prepared as follows. Aqueous solutions of five surfactants were prepared. The selected surfactants were four grades of ethylene oxide/propylene oxide/ethylene oxide (LUTROL grades F127, F87, F 108, and F68) and PEG-40 stearate (MYRJ 52). Solutions were made at concentrations of 1, 5, and 15 weight percent. The aqueous surfactant blends solutions were chilled as necessary to promote complete dissolution of the surfactant prior to drug solubility studies.
The aqueous surfactant solutions were equilibrated to constant temperature in a 37° C. water bath. Then, neat topiramate drug was added slowly with stirring in about 10 mg increments to the surfactant solutions until no more drug dissolved. […] The resulting saturated solutions of drug were filtered through 0.8 micron filters and analyzed for drug concentration by refractive index chromatography. […]

≈ marks a conversion by molar mass, not a printed value.

Take `CC1(C)O[C@@H]2[C@@H](CO[C@@]3(COS(N)(=O)=O)OC(C)(C)O[C@@H]23)O1` [topiramate]: under “37 °C, thermodynamic from solid, de-ionized water, no temperature printed at the place, read-out: Solubility of neat topiramate in de-ionized water”, the solubility (commonly the concentration that dissolves in the medium under given conditions) was roughly 12 mg/mL (≈ 35.4 mM). The “Topiramate solubility in water in the presence of surfactant, compared to control without surfactant” value (LUTROL F127, F87, F108, F68 and MYRJ 52 solutions at 1, 5 and 15 weight percent, 37° C.) is recorded as “increased by each surfactant”.
